How the values were obtained:
Format in all cases: biochemical
[1] = target: T1, human EGFR (L858R/T790M/C797S) (Homo sapiens, UniProt P00533, C797S/L858R/T790M); test: Inhibitory activity against EGFR (L858R/T790M/C797S) kinase
T1 construct: made in house; host or cells: Sf9 insect cells, baculovirus
Outline: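 GST-tagged cytoplasmic domain of human EGFR L858R/T790M/C797S, expressed in Sf9 insect cells via baculovirus and glutathione-purified. Kinase reaction run at 0.5 μM ATP final; IC50 (nM) determined per compound.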

[2] = target: T2, human EGFR (WT) (Homo sapiens, UniProt P00533); test: Inhibitory activity against EGFR (WT) kinase
T2 construct: purchased Carna Biosciences Inc., Japan
Outline: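 Purified recombinant human wild-type EGFR kinase, with ATP at 1.5 μM final. Compound inhibition of kinase activity read out and fitted to give IC50 (nM).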

[3] = target: T3, human EGFR (d746-750/C797S) (Homo sapiens, UniProt P00533, C797S/DEL746-750); test: Inhibitory activity against EGFR (d746-750/C797S) kinase
T3 construct: purchased SignalChem
Outline: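 Recombinant human EGFR d746-750/C797S in 13.5 mM Tris pH 7.5 with 2 mM DTT and 0.009% Tween-20. Reaction ran 60 min with 14 μM ATP, 20 mM MgCl2 and 12.5 mM MnCl2, stopped by 40 mM EDTA. IC50 in nM.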

[4] = target: T4, human EGFR (L858R/C797S) (Homo sapiens, UniProt P00533, C797S/L858R); test: Inhibitory activity against EGFR (L858R/C797S) kinase
T4 construct: purchased SignalChem
Outline: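 Purified recombinant human EGFR (C797S/L858R) kinase, final ATP 4 μM, 90-minute kinase reaction, otherwise per the EGFR (d746-750/C797S) protocol. IC50 (nM) determined from inhibition data.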

[5] = target: T5, human EGFR (d746-750/T790M/C797S) (Homo sapiens, UniProt P00533, C797S/DEL746-750/T790M); test: Inhibitory activity against EGFR (d746-750/T790M/C797S) kinase
T5 construct: made in house; host or cells: Sf9 insect cells, baculovirus
Outline: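 GST-fused cytoplasmic domain of human EGFR d746-750/T790M/C797S (Sf9-expressed) was incubated with 250 nM biotinylated peptide, 6 μM ATP, 10 mM MgCl2 and 10 mM MnCl2 (2.5% DMSO) for 120 min at 25 °C. After an EDTA stop, phosphotyrosine was detected by Eu-PT66/SureLight APC-SA TR-FRET (665/620 nm, excitation 337 nm). Background wells received EDTA before enzyme.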

[6] = Test Example 3, Table 9; same procedures as 2) in Test Example 1
[7] = Test Example 3, Table 12; same procedures as 5) in Test Example 1
[8] = Test Example 3, Table 10; same procedures as 3) in Test Example 1
[9] = Test Example 3, Table 11; same procedures as 4) in Test Example 1
[10] = Test Example 3, Table 8; same procedures as 1) in Test Example 1
[11] = Test Example 1, Table 3, ATP 0.5 μM
[12] = Test Example 1, Table 6, ATP 1.5 μM
[13] = Test Example 1, Table 4, ATP 14 μM, 60 minutes
[14] = Test Example 1, Table 5, ATP 4 μM, 90 minutes
[15] = Test Example 1, Table 2, ATP 6 μM, 25° C., 120 minutes

T4 sequence (P00533 25-1210 C797S/L858R): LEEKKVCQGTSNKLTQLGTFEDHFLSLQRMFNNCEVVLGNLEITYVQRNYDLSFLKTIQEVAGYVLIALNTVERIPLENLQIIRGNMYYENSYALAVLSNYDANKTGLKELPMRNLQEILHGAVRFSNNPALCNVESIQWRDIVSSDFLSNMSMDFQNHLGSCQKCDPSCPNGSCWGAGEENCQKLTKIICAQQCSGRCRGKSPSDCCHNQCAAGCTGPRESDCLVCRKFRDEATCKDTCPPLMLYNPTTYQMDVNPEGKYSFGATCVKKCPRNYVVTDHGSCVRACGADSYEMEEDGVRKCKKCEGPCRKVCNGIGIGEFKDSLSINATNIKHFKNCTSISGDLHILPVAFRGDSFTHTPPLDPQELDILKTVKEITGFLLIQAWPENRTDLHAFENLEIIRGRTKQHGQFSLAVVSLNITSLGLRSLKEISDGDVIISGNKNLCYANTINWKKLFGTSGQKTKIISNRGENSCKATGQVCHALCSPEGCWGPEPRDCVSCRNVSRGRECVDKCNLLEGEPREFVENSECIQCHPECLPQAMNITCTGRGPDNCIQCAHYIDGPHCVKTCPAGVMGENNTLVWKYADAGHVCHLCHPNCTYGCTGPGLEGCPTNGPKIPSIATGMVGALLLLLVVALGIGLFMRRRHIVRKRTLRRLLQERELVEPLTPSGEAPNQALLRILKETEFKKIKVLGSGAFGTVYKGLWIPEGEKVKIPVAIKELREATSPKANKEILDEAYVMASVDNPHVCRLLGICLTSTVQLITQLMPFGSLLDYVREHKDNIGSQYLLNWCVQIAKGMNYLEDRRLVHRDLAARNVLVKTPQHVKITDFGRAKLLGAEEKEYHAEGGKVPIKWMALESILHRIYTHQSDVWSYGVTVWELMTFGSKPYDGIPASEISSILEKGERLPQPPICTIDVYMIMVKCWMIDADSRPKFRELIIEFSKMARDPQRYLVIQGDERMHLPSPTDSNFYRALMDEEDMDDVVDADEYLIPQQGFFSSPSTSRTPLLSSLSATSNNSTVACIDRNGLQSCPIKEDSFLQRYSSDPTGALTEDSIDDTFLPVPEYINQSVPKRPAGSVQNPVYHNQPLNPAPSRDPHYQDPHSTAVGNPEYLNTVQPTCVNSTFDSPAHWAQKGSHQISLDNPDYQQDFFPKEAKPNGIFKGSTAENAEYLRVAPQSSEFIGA
T1 sequence (P00533 with tags, fused parts or gaps T790M/C797S/L858R): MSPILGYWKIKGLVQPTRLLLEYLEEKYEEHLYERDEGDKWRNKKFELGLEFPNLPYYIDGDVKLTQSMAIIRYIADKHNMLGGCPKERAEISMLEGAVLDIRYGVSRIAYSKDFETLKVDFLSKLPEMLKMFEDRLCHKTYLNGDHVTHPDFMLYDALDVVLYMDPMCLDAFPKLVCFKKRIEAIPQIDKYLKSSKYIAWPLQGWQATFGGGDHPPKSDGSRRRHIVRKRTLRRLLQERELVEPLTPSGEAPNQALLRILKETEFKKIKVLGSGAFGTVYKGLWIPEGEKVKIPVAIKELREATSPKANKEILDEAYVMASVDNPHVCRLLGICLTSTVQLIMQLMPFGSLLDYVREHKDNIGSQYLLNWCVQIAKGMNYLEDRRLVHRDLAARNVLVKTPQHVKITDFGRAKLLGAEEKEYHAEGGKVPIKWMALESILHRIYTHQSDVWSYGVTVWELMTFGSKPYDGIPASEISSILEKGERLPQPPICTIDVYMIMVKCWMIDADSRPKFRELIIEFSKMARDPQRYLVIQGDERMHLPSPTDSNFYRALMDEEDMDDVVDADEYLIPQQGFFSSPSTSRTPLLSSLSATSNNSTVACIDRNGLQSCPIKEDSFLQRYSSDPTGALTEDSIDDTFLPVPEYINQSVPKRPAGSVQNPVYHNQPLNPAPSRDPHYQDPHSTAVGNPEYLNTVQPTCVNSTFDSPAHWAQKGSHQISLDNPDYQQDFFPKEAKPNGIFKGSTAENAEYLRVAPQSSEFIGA
T2 sequence (P00533 25-1210): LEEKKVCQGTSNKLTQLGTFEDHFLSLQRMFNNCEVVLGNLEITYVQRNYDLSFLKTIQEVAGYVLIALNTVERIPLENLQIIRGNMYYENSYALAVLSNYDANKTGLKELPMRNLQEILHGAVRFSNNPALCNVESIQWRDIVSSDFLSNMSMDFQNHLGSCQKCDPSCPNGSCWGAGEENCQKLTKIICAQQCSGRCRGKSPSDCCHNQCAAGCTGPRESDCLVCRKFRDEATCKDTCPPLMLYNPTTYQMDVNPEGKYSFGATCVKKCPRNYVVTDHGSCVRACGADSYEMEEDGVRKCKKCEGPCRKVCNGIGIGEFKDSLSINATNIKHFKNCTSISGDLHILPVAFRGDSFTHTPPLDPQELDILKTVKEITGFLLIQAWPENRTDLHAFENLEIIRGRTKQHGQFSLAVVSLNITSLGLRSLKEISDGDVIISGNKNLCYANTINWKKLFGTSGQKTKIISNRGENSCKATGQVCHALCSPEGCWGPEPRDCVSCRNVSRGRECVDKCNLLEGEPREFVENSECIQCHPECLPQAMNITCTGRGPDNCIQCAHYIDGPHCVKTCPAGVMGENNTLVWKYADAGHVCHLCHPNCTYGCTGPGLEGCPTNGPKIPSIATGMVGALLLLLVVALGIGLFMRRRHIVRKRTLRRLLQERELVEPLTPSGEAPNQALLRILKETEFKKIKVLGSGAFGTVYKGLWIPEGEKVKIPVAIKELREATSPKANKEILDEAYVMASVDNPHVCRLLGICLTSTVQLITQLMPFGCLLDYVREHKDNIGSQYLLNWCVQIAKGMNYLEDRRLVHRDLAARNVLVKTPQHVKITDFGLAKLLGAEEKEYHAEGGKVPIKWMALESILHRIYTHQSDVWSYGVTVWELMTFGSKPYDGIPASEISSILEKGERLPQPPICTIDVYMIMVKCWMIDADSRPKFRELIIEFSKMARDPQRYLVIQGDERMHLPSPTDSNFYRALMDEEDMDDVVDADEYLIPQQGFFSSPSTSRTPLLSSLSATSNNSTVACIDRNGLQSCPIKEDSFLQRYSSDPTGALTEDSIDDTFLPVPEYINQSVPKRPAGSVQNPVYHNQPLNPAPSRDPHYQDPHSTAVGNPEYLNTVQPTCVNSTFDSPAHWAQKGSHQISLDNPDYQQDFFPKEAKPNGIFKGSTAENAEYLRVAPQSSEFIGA
T5 sequence (P00533 with tags, fused parts or gaps DEL746-750/T790M/C797S): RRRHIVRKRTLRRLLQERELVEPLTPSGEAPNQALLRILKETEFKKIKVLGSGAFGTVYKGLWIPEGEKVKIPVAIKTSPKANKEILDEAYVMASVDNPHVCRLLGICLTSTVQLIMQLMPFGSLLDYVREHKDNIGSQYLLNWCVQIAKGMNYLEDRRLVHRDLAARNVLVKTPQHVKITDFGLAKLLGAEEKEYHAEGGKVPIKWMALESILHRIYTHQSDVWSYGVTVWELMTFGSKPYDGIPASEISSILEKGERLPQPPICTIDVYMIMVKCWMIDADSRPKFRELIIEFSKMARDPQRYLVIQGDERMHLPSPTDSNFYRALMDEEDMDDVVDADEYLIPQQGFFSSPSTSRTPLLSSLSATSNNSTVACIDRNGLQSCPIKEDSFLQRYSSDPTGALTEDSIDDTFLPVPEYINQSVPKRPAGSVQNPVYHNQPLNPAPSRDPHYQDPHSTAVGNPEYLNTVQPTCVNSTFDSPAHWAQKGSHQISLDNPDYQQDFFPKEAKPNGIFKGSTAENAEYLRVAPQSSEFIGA
T3 sequence (P00533 with tags, fused parts or gaps DEL746-750/C797S): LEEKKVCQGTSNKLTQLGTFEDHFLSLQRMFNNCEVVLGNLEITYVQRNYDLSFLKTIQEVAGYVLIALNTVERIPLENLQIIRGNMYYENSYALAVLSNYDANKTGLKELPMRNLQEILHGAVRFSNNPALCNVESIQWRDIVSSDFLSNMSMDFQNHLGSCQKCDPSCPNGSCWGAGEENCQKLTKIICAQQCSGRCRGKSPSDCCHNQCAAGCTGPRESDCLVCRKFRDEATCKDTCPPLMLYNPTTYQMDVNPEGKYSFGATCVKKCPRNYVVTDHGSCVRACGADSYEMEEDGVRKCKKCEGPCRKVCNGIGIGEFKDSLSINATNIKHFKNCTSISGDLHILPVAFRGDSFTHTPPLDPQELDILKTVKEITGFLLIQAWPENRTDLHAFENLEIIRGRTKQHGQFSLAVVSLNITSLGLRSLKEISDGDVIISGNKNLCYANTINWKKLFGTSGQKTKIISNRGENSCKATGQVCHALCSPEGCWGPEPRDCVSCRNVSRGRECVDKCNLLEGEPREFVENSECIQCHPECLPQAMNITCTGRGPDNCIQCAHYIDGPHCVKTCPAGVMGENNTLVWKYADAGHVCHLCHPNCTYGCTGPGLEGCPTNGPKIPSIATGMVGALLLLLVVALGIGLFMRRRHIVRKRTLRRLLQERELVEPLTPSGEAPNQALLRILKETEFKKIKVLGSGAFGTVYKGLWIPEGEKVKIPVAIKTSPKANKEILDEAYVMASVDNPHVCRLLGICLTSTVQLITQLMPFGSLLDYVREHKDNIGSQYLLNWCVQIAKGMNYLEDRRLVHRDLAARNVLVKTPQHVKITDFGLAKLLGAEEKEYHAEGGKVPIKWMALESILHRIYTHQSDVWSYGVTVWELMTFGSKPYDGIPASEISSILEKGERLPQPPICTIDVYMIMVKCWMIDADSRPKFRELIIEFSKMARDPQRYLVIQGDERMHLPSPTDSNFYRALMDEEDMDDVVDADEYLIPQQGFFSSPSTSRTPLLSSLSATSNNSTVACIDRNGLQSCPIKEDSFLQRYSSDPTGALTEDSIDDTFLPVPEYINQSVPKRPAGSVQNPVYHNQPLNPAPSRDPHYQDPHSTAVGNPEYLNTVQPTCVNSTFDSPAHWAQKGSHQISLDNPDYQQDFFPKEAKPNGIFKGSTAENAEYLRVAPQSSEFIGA

| IC50 [1, 6] | IC50 [2, 7] | IC50 [3, 8] | IC50 [4, 9] | IC50 [5, 10] | IC50 [1, 11] | IC50 [2, 12] | IC50 [3, 13] | IC50 [4, 14] | IC50 [5, 15] | SMILES |
| --- | --- | --- | --- | --- | --- | --- | --- | --- | --- | --- |
| < 0.3 nM | 0.35 nM | 0.3 nM | 0.37 nM | < 0.3 nM | – | – | – | – | – | C#Cc1c(-c2cnc3ccccc3c2)c2c(N)ncnc2n1C12CCC(NC(=O)c3cnc(CNC)cn3)(CC1)C2 [Example 67, N-(4-(4-Amino-6-ethynyl-5-(quinolin-3-yl)-7H-pyrrolo[2,3-d]pyrimidin-7-yl)bicyclo-[2.2.1]heptan-1-yl)-5-((methylamino)methyl)pyrazine-2-carboxamide] |
| – | – | – | – | – | 0.68 nM | 1.2 nM | 0.97 nM | 2 nM | < 0.3 nM | C#Cc1c(-c2cnc3ccccc3c2)c2c(N)ncnc2n1C12CCC(NC(=O)NCC)(CC1)C2 [Example 50] |
| – | – | – | – | – | 0.6 nM | 0.51 nM | 0.4 nM | 0.59 nM | < 0.3 nM | C#Cc1c(-c2cnc3ccccc3c2)c2c(N)ncnc2n1C12CCC(NC(=O)c3cncn(C)c3=O)(CC1)C2 [Example 25, N-(4-(4-Amino-6-ethynyl-5-(quinolin-3-yl)-7H-pyrrolo[2,3-d]pyrimidin-7-yl)bicyclo-[2.2.1]heptan-1-yl)-1-methyl-6-oxo-1,6-dihydropyrimidine-5-carboxamide] |
| 0.47 nM | 2.2 nM | 0.83 nM | 1.7 nM | 0.37 nM | – | – | – | – | – | C#Cc1c(-c2cnc3ccccc3c2)c2c(N)ncnc2n1C12CCC(NC(=O)OCc3cnccn3)(CC1)C2 [Example 59, Pyrazin-2-ylmethyl (4-(4-amino-6-ethynyl-5-(quinolin-3-yl)-7H-pyrrolo[2,3-d]-pyrimidin-7-yl)bicyclo[2.2.1]heptane-1-yl)carbamate] |
| – | – | – | – | – | 0.33 nM | 1.9 nM | 0.64 nM | 1.2 nM | < 0.3 nM | C#Cc1c(-c2cnc3ccccc3c2)c2c(N)ncnc2n1C12CCC(NC(=O)c3cc(S(C)(=O)=O)ccn3)(CC1)C2 [Example 30, N-(4-(4-Amino-6-ethynyl-5-(quinolin-3-yl)-7H-pyrrolo[2,3-d]pyrimidin-7-yl)bicyclo-[2.2.1]heptan-1-yl)-4-(methylsulfonyl)picolinamide] |
| – | – | – | – | – | 0.34 nM | 0.94 nM | 0.83 nM | 0.99 nM | < 0.3 nM | C#Cc1c(-c2cnc3ccccc3c2)c2c(N)ncnc2n1C12CCC(NC(=O)c3ncccn3)(CC1)C2 [Example 51] |
| – | – | – | – | – | 0.52 nM | 1.5 nM | 0.49 nM | 0.62 nM | < 0.3 nM | C#Cc1c(-c2cnc3ccccc3c2)c2c(N)ncnc2n1C12CCC(NC(=O)c3cnccc3OC)(CC1)C2 [Example 31, N-(4-(4-Amino-6-ethynyl-5-(quinolin-3-yl)-7H-pyrrolo[2,3-d]pyrimidin-7-yl)bicyclo-[2.2.1]heptan-1-yl)-4-methoxynicotinamide] |
| – | – | – | – | – | 0.31 nM | 0.62 nM | 0.32 nM | 0.39 nM | < 0.3 nM | C#Cc1c(-c2cnc3ccccc3c2)c2c(N)ncnc2n1C12CCC(NC(=O)c3cc(CF)nn3C)(CC1)C2 [Example 29, N-(4-(4-Amino-6-ethynyl-5-(quinolin-3-yl)-7H-pyrrolo[2,3-d]pyrimidin-7-yl)bicyclo-[2.2.1]heptan-1-yl)-3-(fluoromethyl)-1-methyl-1H-pyrazole-5-carboxamide] |
| – | – | – | – | – | 1.5 nM | 3.9 nM | 2.2 nM | 3.4 nM | < 0.3 nM | C#Cc1c(-c2cnc3ccccc3c2)c2c(N)ncnc2n1C12CCC(N(C)C(=O)c3ncco3)(CC1)C2 [Example 58, N-[4-(4-Amino-6-ethynyl-5-quinolin-3-ylpyrrolo[2,3-d]pyrimidin-7-yl)-1-bicyclo-[2.2.1]heptan-1-yl]-N-methyloxazole-2-carboxamide] |
| – | – | – | – | – | < 0.3 nM | 0.31 nM | 0.48 nM | 0.43 nM | < 0.3 nM | C#Cc1c(-c2cnc3ccccc3c2)c2c(N)ncnc2n1C12CCC(NC(=O)c3nccn4ccnc34)(CC1)C2 [Example 42] |
